Columns and labels:
[1] = system: angiotensin II-induced contraction of the isolated rabbit aorta; experiment: Inhibition of angiotensin II-induced vascular contraction on isolated aortic rings of the rabbit in vitro; format: cell-based; settings: Oryctolagus cuniculus, agonist angiotensin II, effect at 3rd = submaximal agonist concentration, read-out: IC50 against contractions induced by: AII
Method: Rabbits of both sexes are stunned by a blow to the neck and exsanguinated, or in some cases anaesthetised with Nembutal (about 60-80 mg/kg i.v.) and sacrificed by opening the thorax. The thoracic aorta is removed, freed from attached connective tissue and divided into ring segments 1.5 mm wide, and the segments are introduced individually, under an initial load of about 3.5 g, in 10 ml organ baths containing carbogen-gassed Krebs-Henseleit nutrient solution thermostatically controlled at 37° C. and having the following composition: 119 mmol/l of NaCl; 2.5 mmol/l of CaCl2 ×2H2 O; 1.2 mmol/l of KH2 PO4; 10 mmol/l of glucose; 4.8 mmol/l of KCl; 1.4 mmol/l of MgSO4 ×7H2 O and 25 mmol/l of NaHCO3.
The contractions are recorded isometrically by Statham UC2 cells via bridged amplifiers (ifd Mulheim or DSM Aalen) and are digitised and evaluated by means of an A/D converter (System 570, Keithley Munich). The agonist dose/effect curves (DEC) are plotted hourly. With every DEC, 3 or 4 individual concentrations are applied to the baths at intervals of 4 minutes. The end of the DEC and subsequent wash-out cycles (16 times for in each case about 5 seconds/minute with the above nutrient solution) is followed by a 28-minute rest or incubation phase, during which the contractions as a rule reach the starting value again.
The level of the third DEC in the normal case is used as the reference parameter for evaluation of the test substance which is to be investigated in subsequent passes and is applied to the baths for the following DECs at the start of the incubation time at a dosage which increases each time. Each aortic ring is stimulated over the whole day with always the same agonist.
(§1) ______________________________________
Agonists and their standard concentrations (Application
volume per individual dose = 100 μl):
as §1
For calculation of the IC50 (concentration at which the substance under investigation causes 50% inhibition), the particular effect at the 3rd=submaximal agonist concentration is taken as the basis.

[2] = system: angiotensin II-infused rats; experiment: Blood pressure measurements on angiotensin II-infused rats; format: in vivo, Male Wistar rats; settings: angiotensin II-infused rats (0.3 μg/kg/minute), anaesthetised; dose 0.1 mg/kg p.o.
Method: Male Wistar rats (Moellegaard, Copenhagen, Denmark) with a body weight of 300-350 g are anaesthetised with thiopental (100 mg/kg i.p.). After tracheotomy, a catheter for blood pressure measurement is inserted into the femoral artery and a catheter for angiotensin II infusion and a catheter for administration of the substance are inserted into the femoral veins. After administration of the ganglion blocker pentolinium (5 mg/kg i.v.), the angiotensin II infusion (0.3 μg/kg/minute) is started. As soon as the blood pressure values have reached a stable plateau, the test substances are administered either intravenously, or orally as a suspension or solution in 0.5% of tylose. The changes in blood pressure under the influence of the substance are shown as the mean values ±SEM in the table.

smooth muscle cells = experiment: Inhibition of proliferation of smooth muscle cells (3H-thymidine incorporation); format: cell-based; settings: 10^-6 M, smooth muscle cells from aortas of rats or pigs
Method: Smooth muscle cells obtained from the aortas of rats or pigs by the media explantate technique [R. Ross, J. Cell. Biol. 50, 172, 1971] are used to determine the antiproliferative action of the compounds.
The cells are sown in suitable culture dishes, as a rule 24-hole plates, and cultured for 2-3 days in medium 199 with 7.5% of FCS and 7.5% of NCS, 2 mM L-glutamine and 15 mM HEPES, pH 7.4, in 5% CO2 at 37° C. The cells are then synchronised for 2-3 days by withdrawal of the serum, and subsequently stimulated into growth with AII, serum or other factors. Test compounds are added at the same time. […]

angiotensin II receptor = biological target: T1, angiotensin II receptor (Bos taurus, UniProt P25104); experiment: Interaction with the angiotensin II receptor on membrane fractions of the adrenal cortex; format: binding, cattle; settings: bovine adrenal cortex membranes; 3H-angiotensin II (3-5 nM); 60 minutes at room temperature
T1 construct: partly purified membrane fractions of bovine AC with radioactive angiotensin II; from tissue; host or cells: bovine adrenal cortex, partly purified membrane fractions
T1 sequence (P25104 1-359): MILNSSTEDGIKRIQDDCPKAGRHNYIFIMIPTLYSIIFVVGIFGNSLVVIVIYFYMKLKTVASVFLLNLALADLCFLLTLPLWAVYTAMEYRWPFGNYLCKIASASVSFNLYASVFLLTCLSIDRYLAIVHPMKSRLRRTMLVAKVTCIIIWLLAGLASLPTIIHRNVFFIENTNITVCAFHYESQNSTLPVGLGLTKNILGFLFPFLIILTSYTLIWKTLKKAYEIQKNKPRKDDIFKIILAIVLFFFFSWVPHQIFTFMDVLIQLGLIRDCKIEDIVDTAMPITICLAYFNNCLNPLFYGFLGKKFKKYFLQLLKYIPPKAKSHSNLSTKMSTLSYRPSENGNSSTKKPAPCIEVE
Method: Adrenal cortices from cattle (AC), which are freshly removed and carefully freed from medulla of the capsule, are comminuted to a coarse membrane homogenate in sucrose solution (0.32M) with the aid of an Ultra-Turrax (Janke & Kunkel, Staufen i.B.), and the homogenate is partly purified to membrane fractions in two centrifugation steps.
The investigations on receptor bonding are carried out on partly purified membrane fractions of bovine AC with radioactive angiotensin II in an assay volume of 0.25 ml, which specifically contains the partly purified membranes (50-80 μg), 3H-angiotensin II (3-5 nM), test buffer solution (50 mM Tris, pH 7.2), 5 mM MgCl2 and the substances to be investigated. After an incubation time of 60 minutes at room temperature, the non-bonded radioactivity of the samples is separated off by means of a moistened glass fibre filter (Whatman GF/C) and, after the protein has been washed with ice-cold buffer solution (50 mM Tris/HCl, pH 7.4, 5% PEG 6000), the bonded radioactivity is measured by spectrophotometry in a scintillation cocktail. The raw data were analysed for Ki and IC50 values by computer programs (Ki : IC50 values corrected for the radioactivity used; IC50 values: concentration at which the substance under investigation causes 50% inhibition of the specific bonding of the radio ligand).

| SMILES | IC50 [1] [nM] | ΔP (change in blood pressure) [2] [mm Hg] | inhibition at 1 µM (smooth muscle cells) [%] | Ki (angiotensin II receptor) [nM] |
| --- | --- | --- | --- | --- |
| COC(=O)[C@@H]1CCCN1S(=O)(=O)c1ccc(Cn2c(C3CC3)nc3c(C)ccnc32)c(Cl)c1 [Example 19] | 6 | – | – | – |
| CCc1nc2c(C)cc(C)nc2n1Cc1ccc(S(=O)(=O)N2CCC[C@H]2C(=O)OC)cc1Cl [Example 20, S-4-[[2-Ethyl-imidazo[4,5-b]5,7-dimethyl-pyridin]-3-yl]methyl-3-chloro-benzenesulphonyl-N-(2-methoxy-carbonyl)pyrrolidinide] | 6 | -48 | – | – |
| Cc1cc(C)c2nc(C3CC3)n(Cc3ccc(S(=O)(=O)N4CCC[C@H]4C(=O)O)cc3Cl)c2n1 [Example 39] | 3 | -32 | – | – |
| CCCCc1nc2cccnc2n1Cc1ccc(S(=O)(=O)N2CCC[C@H]2C(=O)O)cc1Cl [Example 5] | 40 | – | 70 | 550 |
| CCc1nc2c(C)cc(C)nc2n1Cc1ccc(S(=O)(=O)N2CCC[C@H]2C(=O)O)cc1Cl [Example 41] | 3 | – | – | – |
| CCCCc1nc2cccnc2n1Cc1ccc(S(=O)(=O)N2CCCCC2C(=O)O)cc1Cl (racemic) [Example 2, rac-4-[{2-Butyl-imidazo[4,5-b]pyridin}-3-yl]methyl-3-chlorobenzenesulphonyl-N-(2-carboxy)piperidinide] | 326 | – | 40 | 1000 |
| COC(=O)[C@@H]1CCCN1S(=O)(=O)c1ccc(Cn2c(C3CC3)nc3c(C)cc(C)nc32)c(Cl)c1 [Example 31] | 4 | -62 | – | – |
